According to the supplement of paper PMC11061612:

Experiments:
Assay in all cases: combination Emax (second highest fraction inhibited in the dose matrix, 72 h); higher = more inhibition; extreme values may be limits of the assay
[1] = system: RERF-LC-KJ (Lung Adenocarcinoma)
Method in brief: (§1)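 Bliss excess equals the observed combination effect minus the expected value EA + EB − EA·EB, where EA and EB are the effects of each agent alone. Combination Emax is the second-highest inhibition within the matrix. Inhibition was scaled from CellTiter-Glo 2.0 luminescence, with 0 set by vehicle wells and 1 by blank wells, after 72 hours of two-drug dosing of cells plated in 1536-well plates.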

[2] = system: JHH-1 (Hepatocellular Carcinoma)
Method in brief: as §1

[3] = system: NCI-H1623 (Lung Adenocarcinoma)
Method in brief: as §1

[4] = system: HSC-3 (Oral Cavity Carcinoma)
Method in brief: as §1

| Structure (SMILES) | combination Emax [1] | combination Emax [2] | combination Emax [3] | combination Emax [4] |
| --- | --- | --- | --- | --- |
| CN(CCO)CC[C@H](CSc1ccccc1)Nc1ccc(S(=O)(=O)NC(=O)c2ccc(N3CCC([C@@H](O)c4ccccc4-c4ccc(Cl)cc4)CC3)cc2)cc1S(=O)(=O)C(F)(F)F [AZD4320] + C[C@@H]1COCCN1C2=NC(=NC(=C2)C3(CC3)[S@](=N)(=O)C)C4=C5C=CNC5=NC=C4 [AZD6738] (first compound max 1 µM, 7x7, partner max 10 µM) | 0.324 | 0.838 | 0.871 | 0.691 |
| CC1(C)CCC(CN2CCN(c3ccc(C(=O)NS(=O)(=O)c4ccc(NCC5CCOCC5)c([N+](=O)[O-])c4)c(Oc4cnc5[nH]ccc5c4)c3)CC2)=C(c2ccc(Cl)cc2)C1 [Venetoclax] + C=CCn1c(=O)c2cnc(Nc3ccc(N4CCN(C)CC4)cc3)nc2n1-c1cccc(C(C)(C)O)n1 [AZD1775] (first compound max 1 µM, partner max 1 µM) | 0.283 | 0.578 | 0.577 | 0.492 |
| Cc1c2c(nn1C)CSCc1cc(n(C)n1)CSc1cc(c3ccccc3c1)OCCCc1c(C(=O)O)n(C)c3c-2c(Cl)ccc13 [AZD5991] + Cn1cnc2c(F)c(Nc3ccc(Br)cc3Cl)c(C(=O)NOCCO)cc21 [Selumetinib] (first compound max 1 µM, 7x7, partner max 3 µM) | 0.516 | 0.663 | 0.898 | 0.744 |
| CCN(CCO)CCCOc1ccc2c(Nc3cc(CC(=O)Nc4cccc(F)c4)[nH]n3)ncnc2c1 [AZD2811] + O=C(c1cc(Cc2n[nH]c(=O)c3ccccc23)ccc1F)N1CCN(C(=O)C2CC2)CC1 [Olaparib] (first compound max 1 µM, 7x7, partner max 10 µM) | 0.333 | 0.161 | 0.442 | 0.351 |
| Cc1cc2ncnn2cc1Nc1ncc2c(n1)n(C1CCOCC1)c(=O)n2C [AZD7648] + CCN(CCO)CCCOc1ccc2c(Nc3cc(CC(=O)Nc4cccc(F)c4)[nH]n3)ncnc2c1 [AZD2811] (first compound max 10 µM, 7x7, partner max 1 µM) | 0.455 | 0.113 | 0.28 | 0.455 |
| CC1(C)CCC(CN2CCN(c3ccc(C(=O)NS(=O)(=O)c4ccc(NCC5CCOCC5)c([N+](=O)[O-])c4)c(Oc4cnc5[nH]ccc5c4)c3)CC2)=C(c2ccc(Cl)cc2)C1 [Venetoclax] + CN(C)CCCOc1ccc(-c2ccc3ncc4c(c3c2)n(C2CCOCC2)c(=O)n4C)cn1 [AZD0156] (first compound max 1 µM, 7x7, partner max 1 µM) | 0.278 | 0.214 | 0.262 | 0.233 |
| CN(C)CCCOc1ccc(-c2ccc3ncc4c(c3c2)n(C2CCOCC2)c(=O)n4C)cn1 [AZD0156] + C=CCn1c(=O)c2cnc(Nc3ccc(N4CCN(C)CC4)cc3)nc2n1-c1cccc(C(C)(C)O)n1 [AZD1775] (first compound max 1 µM, partner max 1 µM) | 0.33 | 0.463 | 0.311 | 0.243 |
| CCc1c2c(nc3ccc(O)cc13)-c1cc3c(c(=O)n1C2)COC(=O)[C@]3(O)CC [SN-38] + CN(C)CCCOc1ccc(-c2ccc3ncc4c(c3c2)n(C2CCOCC2)c(=O)n4C)cn1 [AZD0156] (first compound max 0.3 µM, 7x7, partner max 1 µM) | 0.673 | 0.316 | 0.822 | 0.855 |
| CC(=O)c1c(C)c2cnc(Nc3ccc(N4CCNCC4)cn3)nc2n(C2CCCC2)c1=O [Palbociclib] + CN(CC[C@H](CSC1=CC=CC=C1)NC2=C(C=C(C=C2)S(=O)(=O)NC(=O)C3=CC=C(C=C3)N4CCC(CC4)[C@H](C5=CC=CC=C5C6=CC=C(C=C6)Cl)O)S(=O)(=O)C(F)(F)F)CCO [AZD4320] (first compound max 10 µM, 7x7, partner max 1 µM) | 0.141 | 0.519 | 0.387 | 0.613 |
| Cc1cc2ncnn2cc1Nc1ncc2c(n1)n(C1CCOCC1)c(=O)n2C [AZD7648] + O=C(c1cc(Cc2n[nH]c(=O)c3ccccc23)ccc1F)N1CCN(C(=O)C2CC2)CC1 [Olaparib] (first compound max 10 µM, 7x7, partner max 10 µM) | 0.241 | 0.105 | 0.446 | 0.15 |
| CC1(C)CCC(CN2CCN(c3ccc(C(=O)NS(=O)(=O)c4ccc(NCC5CCOCC5)c([N+](=O)[O-])c4)c(Oc4cnc5[nH]ccc5c4)c3)CC2)=C(c2ccc(Cl)cc2)C1 [Venetoclax] + Cc1cc2ncnn2cc1Nc1ncc2c(n1)n(C1CCOCC1)c(=O)n2C [AZD7648] (first compound max 1 µM, 7x7, partner max 10 µM) | 0.357 | 0.199 | 0.371 | 0.207 |
| COc1cccc(OCCCN)c1-c1cc(Nc2cnc(C#N)cn2)n[nH]1 [Prexasertib] + CCc1c2c(nc3ccc(O)cc13)-c1cc3c(c(=O)n1C2)COC(=O)[C@]3(O)CC [SN-38] (first compound max 1 µM, 7x7, partner max 0.3 µM) | 0.903 | 0.75 | 0.987 | 0.937 |
| COc1cc2c(cc1OCCCCCOc1cc3c(cc1OC)C(=O)N1C=C(C)C[C@H]1C=N3)N=C[C@@H]1CC(C)=CN1C2=O [SG3199] + O=C(c1cc(Cc2n[nH]c(=O)c3ccccc23)ccc1F)N1CCN(C(=O)C2CC2)CC1 [Olaparib] (first compound max 0.001 µM, 7x7, partner max 10 µM) | 0.148 | 0.136 | 0.376 | 0.157 |
| Cc1c2c(nn1C)CSCc1cc(n(C)n1)CSc1cc(c3ccccc3c1)OCCCc1c(C(=O)O)n(C)c3c-2c(Cl)ccc13 [AZD5991] + C=CCn1c(=O)c2cnc(Nc3ccc(N4CCN(C)CC4)cc3)nc2n1-c1cccc(C(C)(C)O)n1 [AZD1775] (first compound max 1 µM, partner max 1 µM) | 0.563 | 0.721 | 0.959 | 0.851 |
| CN(CCO)CC[C@H](CSc1ccccc1)Nc1ccc(S(=O)(=O)NC(=O)c2ccc(N3CCC([C@@H](O)c4ccccc4-c4ccc(Cl)cc4)CC3)cc2)cc1S(=O)(=O)C(F)(F)F [AZD4320] + Cc1cc2ncnn2cc1Nc1ncc2c(n1)n(C1CCOCC1)c(=O)n2C [AZD7648] (first compound max 1 µM, 7x7, partner max 10 µM) | 0.288 | 0.382 | 0.298 | 0.151 |
| Cc1cc2ncnn2cc1Nc1ncc2c(n1)n(C1CCOCC1)c(=O)n2C [AZD7648] + C=CCn1c(=O)c2cnc(Nc3ccc(N4CCN(C)CC4)cc3)nc2n1-c1cccc(C(C)(C)O)n1 [AZD1775] (first compound max 10 µM, partner max 1 µM) | 0.345 | 0.433 | 0.505 | 0.311 |
| COc1cccc(OCCCN)c1-c1cc(Nc2cnc(C#N)cn2)n[nH]1 [Prexasertib] + O=C(c1cc(Cc2n[nH]c(=O)c3ccccc23)ccc1F)N1CCN(C(=O)C2CC2)CC1 [Olaparib] (first compound max 1 µM, 7x7, partner max 10 µM) | 0.203 | 0.582 | 0.813 | 0.719 |
| COc1cccc(OCCCN)c1-c1cc(Nc2cnc(C#N)cn2)n[nH]1 [Prexasertib] + CN(C)CCCOc1ccc(-c2ccc3ncc4c(c3c2)n(C2CCOCC2)c(=O)n4C)cn1 [AZD0156] (first compound max 1 µM, 7x7, partner max 1 µM) | 0.349 | 0.677 | 0.804 | 0.654 |
| CC1(C)CCC(CN2CCN(c3ccc(C(=O)NS(=O)(=O)c4ccc(NCC5CCOCC5)c([N+](=O)[O-])c4)c(Oc4cnc5[nH]ccc5c4)c3)CC2)=C(c2ccc(Cl)cc2)C1 [Venetoclax] + Cn1cnc2c(F)c(Nc3ccc(Br)cc3Cl)c(C(=O)NOCCO)cc21 [Selumetinib] (first compound max 1 µM, 7x7, partner max 3 µM) | 0.185 | 0.272 | 0.256 | 0.365 |
| CC1(C)CCC(CN2CCN(c3ccc(C(=O)NS(=O)(=O)c4ccc(NCC5CCOCC5)c([N+](=O)[O-])c4)c(Oc4cnc5[nH]ccc5c4)c3)CC2)=C(c2ccc(Cl)cc2)C1 [Venetoclax] + C1CN(CCC1(C(=O)N[C@@H](CCO)C2=CC=C(C=C2)Cl)N)C3=NC=NC4=C3C=CN4 [Capivasertib] (first compound max 1 µM, 7x7, partner max 3 µM) | 0.377 | 0.115 | 0.314 | 0.391 |
| Cc1c2c(nn1C)CSCc1cc(n(C)n1)CSc1cc(c3ccccc3c1)OCCCc1c(C(=O)O)n(C)c3c-2c(Cl)ccc13 [AZD5991] + C[C@@H]1COCCN1C2=NC(=NC(=C2)C3(CC3)[S@](=N)(=O)C)C4=C5C=CNC5=NC=C4 [AZD6738] (first compound max 1 µM, 7x7, partner max 10 µM) | 0.465 | 0.686 | 0.997 | 0.798 |
| C=CCn1c(=O)c2cnc(Nc3ccc(N4CCN(C)CC4)cc3)nc2n1-c1cccc(C(C)(C)O)n1 [AZD1775] + O=C(c1cc(Cc2n[nH]c(=O)c3ccccc23)ccc1F)N1CCN(C(=O)C2CC2)CC1 [Olaparib] (first compound max 1 µM, partner max 10 µM) | 0.276 | 0.328 | 0.605 | 0.268 |
| CC(=O)Nc1cccc(-n2c(=O)n(C3CC3)c(=O)c3c(Nc4ccc(I)cc4F)n(C)c(=O)c(C)c32)c1 [Trametinib] + Cc1nc(-c2cn3c(n2)-c2ccc(-c4cnn(C(C)(C)C(N)=O)c4)cc2OCC3)n(C(C)C)n1 [Taselisib] (first compound max 1 µM, 7x7, partner max 10 µM) | 0.727 | 1 | 1 | 0.986 |
| COc1cccc(OCCCN)c1-c1cc(Nc2cnc(C#N)cn2)n[nH]1 [Prexasertib] + C=CCn1c(=O)c2cnc(Nc3ccc(N4CCN(C)CC4)cc3)nc2n1-c1cccc(C(C)(C)O)n1 [AZD1775] (first compound max 1 µM, partner max 1 µM) | 0.435 | 0.656 | 0.841 | 0.847 |
| Cc1c2c(nn1C)CSCc1cc(n(C)n1)CSc1cc(c3ccccc3c1)OCCCc1c(C(=O)O)n(C)c3c-2c(Cl)ccc13 [AZD5991] + C[C@@H](Nc1cc(F)cc(F)c1)c1cc(C(=O)N(C)C)cc2c(=O)cc(N3CCOCC3)oc12 [AZD8186] (first compound max 1 µM, 7x7, partner max 3 µM) | 0.527 | 0.462 | 0.986 | 0.536 |
